From patent publication US6949356B1, “Methods for improving secondary metabolite production in fungi” (Microbia, Inc., priority 1999, dated 2005)

Tested on: S. cerevisiae strain 22409
Test: Lovastatin resistance test: yeast transformants spotted to SC-URA agar containing different concentrations of lovastatin (FIG. 1)
Format: cell-based, Saccharomyces cerevisiae
Procedure: These genes are predicted to encode proteins, denoted by Genbank accession numbers AAD34558 (hereafter referred to as PUMP1) and AAD34564 (hereby referred to as PUMP2), that are members of the MFS class of transporters. As described above, some MFS transporters are known to confer resistance to toxic compounds. PUMP1 and PUMP2 were tested for their ability to confer resistance to otherwise toxic levels of lovastatin when expressed in the fungus S. cerevisiae.
The polyA+ fraction of the A. terreus total RNA was isolated using Oligotex beads (Qiagen Inc.). Purified polyA+ RNA (5 μg) was used to generate complementary DNA (cDNA) using Superscript Reverse Transcriptase (Gibco BRL, 9800 Medical Center Drive, PO Box 6482, Rockville, Md. 20849) according to the instructions of the manufacturer. The cDNA was then used to isolate and clone PUMP1 and PUMP2 gene sequences using the polymerase chain reaction (PCR) and Gateway (Life Technologies) Cloning Technology (U.S. Pat. No. 5,888,732). Oligonucleotide sequences used for PCR were 5′-[…]-3′ (SEQ ID NO: 7) and 5′-[…]-3′ (SEQ ID NO: 8) for PUMP1. Oligonucleotide sequences used for PUMP2 PCR were 5′-[…]-3′ (SEQ ID NO: 9) and 5′-[…]-3′ (SEQ ID NO: 10). The resultant plasmids, MB1333 and MB1334, were designed to express PUMP1 and PUMP2, respectively, under control of the S. cerevisiae TEF1 promoter. The plasmids carry a functional URA3 gene to allow for selection of the plasmid on media lacking uracil in a ura3 mutant strain. These plasmids also contained a 2-micron origin for high-copy replication in yeast. […] Environ. Microbiol. 63: 33414 (1997) as pRH127-3, that expresses a soluble form of HMG CoA reductase under control of the yeast GPD1 promoter and is known to confer resistance to increased levels of lovastatin (Donald et al., Appl. Environ. Microbiol. 63: 3341-4 (1997)).
MB1333, MB1334, MB969 and MB1344 were transformed into the yeast strain 22409 (Research Genetics, USA) using standard transformation methods for S. cerevisiae (Biotechniques, 1992, 13(1): 18). Strain 22409 is derived from the S288c strain background of S. cerevisiae, and its complete genotype is as follows: MATa/α, his3Δ1/his3Δ1, leu2Δ1/leu2Δ0, ura3Δ0/ura3Δ0, LYS2/lys2Δ0, MET15/met15Δ0 pdr5::G418/PDR5. Transformants were grown overnight at 30° C. in synthetic complete media lacking uracil (SC-U) to maintain selection for the plasmid. Cultures were diluted 1:10 in sterile water, and 5 μl of each strain was spotted to SC-URA agar containing different concentrations of lovastatin as shown in FIG. 1.

## CC[C@H](C)C(=O)O[C@H]1C[C@@H](C)C=C2C=C[C@H](C)[C@H](CC[C@@H]3C[C@@H](O)CC(=O)O3)[C@H]21 [lovastatin]
Positive control strain carrying MB1344 (soluble fragment of HMG CoA reductase overexpressed), highest concentration of lovastatin tested, 150 μg/ml
  growth inhibition by lovastatin: no obvious growth inhibition
Strain expressing PUMP2 (MB1334), lowest concentration of lovastatin tested, 50 μg/mL
  growth inhibition by lovastatin: growth inhibition
Strain harboring MB1333 (expressing PUMP1), highest concentration of lovastatin tested, 150 μg/ml
  growth inhibition by lovastatin: no obvious growth inhibition
vector-only control strain (MB969), lowest concentration of lovastatin tested, 50 μg/mL
  growth inhibition by lovastatin: growth inhibition
